Assays:
[1] = target: Cyclin-dependent kinase 2 (Homo sapiens, UniProt P24941); experiment: Inhibition of Cyclin-dependent kinase 2
[2] = Inhibitory activity against thrombin

O=C1NC2C=CC=CC2/C1=C/Nc1ccc(S(=O)(=O)Nc2nccs2)cc1 (stereo not given)
IC50 [1]: 1000 nM

Cc1cc(NS(=O)(=O)c2ccccc2)cc(OCCNc2ccncc2)c1
Ki [2]: 23 nM

N=C(N)NCCC[C@H](NC(=O)[C@@H]1CCN2CC[C@@](N)(Cc3ccccc3)C(=O)N12)C(=O)c1nccs1
Ki [2]: 2 nM

N=C(N)c1ccc(C[C@@H](NC(=O)CNS(=O)(=O)c2ccc3ccccc3c2)C(=O)N2CCCCC2)cc1
Ki [2]: 7 nM

C[C@@H]1CCN(C(=O)[C@H](CCCNC(=N)N)NS(=O)(=O)c2cccc3c2NC[C@H](C)C3)[C@@H](C(=O)O)C1 [ARGATROBAN]
Ki [2]: 1 nM
